# Reference: US20110189122A1, “Use of Molt-Accelerating Compounds, Ecdysteroids, Analogs Thereof, and Chitin Synthesis Inhibitors for Controlling Termites” (priority 2004, published 2011)
# Assays:
# C. formosanus [1] = test: Feeding ecdysteroid-treated filter paper to subterranean termites, 12-day exposure; type: in vivo; conditions: for days of exposure until some termites exhibited the jackknife position (incomplete molting): treated filter paper
# Protocol: (§1) Termites were collected from three colonies each of C. formosanus and R. flavipes and were held in the laboratory at 26±1° C. and 98±2% RH before use Technical grade ecdysone was dissolved in methanol to obtain 0.1, 1, 10, 100 and 1,000-ppm solutions by serial dilution. Methanol solutions (i.e., 0 ppm AI) were used as untreated controls. Each concentration solution (0.2 ml) was pipetted onto […] Whatman No. 1 filter paper fitted into 5-cm-diameter glass Petri dishes and allowed to evaporate overnight.
# (§2) This filter paper served as the cellulose food source for twenty-five termites, plus one soldier for R. flavipes or three soldiers for C. formosanus, which were introduced into each Petri dish after moistening the filter paper with 0.175 ml deionized water. For each species, two subsamples each of three colonies were used per concentration for a total of 72 experimental units. The bioassay units was held at 26±1° C. Observation was made daily for 12 days. Termites showing symptoms of incomplete molting were counted, and dead termites were removed from each unit. […] For each treatment and species combination, mean percent termites showing symptoms of incomplete molting and mortality among concentrations at 12 day were arcsine-root transformed and subjected to the analysis of variance (ANOVA). Significant differences (α=0.05) among concentrations were separated using Fisher's least significant difference (LSD) test (SAS Institute 1999).
# (§3) 20-hydroxyecdysone is an ecdysone byproduct. Technical grade 20-hydroxyecdysone (20 E) was dissolved and used in the same manners as was ecdysone, as discussed above in Example 1.
# R. flavipes = test: as above; type: in vivo; conditions: for days of exposure until some termites exhibited the jackknife position (incomplete molting): treated filter paper
# Protocol: as §1, §2, §3
# [2] = system: eastern subterranean termites (EST), Reticulitermes flavipes (Kollar); test: Test #1 Choice Feeding Bait Test, Halofenozide+Hexaflumuron (treated filter paper vs. untreated SYP); type: in vivo; conditions: for % Surviving: 26 days; for mg consumed after 12 days (Mean ± SEM), treated FP: choice vs. SYP
# Protocol: (§4) Test #1 Choice Feeding Bait Test, Halofenozide+Hexaflumuron. A paired choice feeding test was conducted to compare feeding response and resultant mortality caused by various combinations of technical grade halofenozide and hexaflumuron treated on filter paper (acetone carrier). The test apparatus consisted of two round plastic containers connected by a 7-cm long piece of 2.5-mm diameter (ID) tygon tubing. A known number of termite workers were introduced into a central harborage chamber (5.5 cm round container with ventilated lid) containing a vermiculite/sand/water mixture of ca. 1:1:1. The central harborage chamber was connected by the tygon tubing to the bait foraging chamber (without sand/vermiculite matrix) containing the paired feeding choices.
# ESTs were given the choice to feed between untreated blocks of southern yellow pine (SYP) and treated filter paper. Halofenozide was tested individually at concentrations of 1250, 2500, and 5000 ppm. Hexaflumuron was tested at 5000 ppm, and also combined with each of the aforementioned concentrations of halofenozide. For comparative purposes, technical grade noviflumuron were also tested at 5000 ppm. After twelve days, all treatments were removed, oven-dried, and weighed for consumption. Filter paper was placed in all bioassay units that were held for fourteen more days. Surviving termites were then counted in each replicate. Thus, survival was counted at 26 days after initial exposure to the toxicant. Each treatment was replicated four times with 50 termites per replicate.
# C. formosanus [3] = conditions: C. formosanus, 10,000 ppm, similar condition; cited from earlier work
# [4] = system: eastern subterranean termites (EST), Reticulitermes flavipes (Kollar); test: Test #2 Choice Feeding Bait Test, Halofenozide+Noviflumuron (treated filter paper vs. untreated SYP); type: in vivo; conditions: for mg consumed after 14 days (Mean ± SEM), untreated SYP: SYP block offered against FP with single active 5000 ppm; for No. Survivors/50 after 14 days (Mean ± SEM) / % Surviving / mg consumed after 14 days (Mean ± SEM), treated FP: single active 5000 ppm on filter paper; for % Surviving: 14 days; for mg consumed after 14 days (Mean ± SEM), treated FP: choice vs. SYP
# Protocol: as §4
# Test #2. Choice Feeding Bait Test, Halofenozide+Noviflumuron. A standard paired choice feeding test using the same methods described in Test #1 was conducted to compare feeding response and resultant mortality caused by various combinations of technical grade halofenozide and noviflumuron treated on filter paper (acetone carrier). EST were given the choice to feed between untreated blocks of southern yellow pine (SYP) and treated filter paper. Halofenozide and noviflumuron were tested individually at concentrations of 5000 ppm. Five thousand ppm (5000-ppm) noviflumuron was also tested in combination with 1250, 2500, or 5000 ppm halofenozide. After fourteen days, all treatments were removed, oven-dried, and weighed for consumption. Because of the rapid activity of noviflumuron, surviving termites were also counted in each replicate after only 14 days of feeding. Each treatment was replicated four times with 50 termites per replicate.
# [5] = system: eastern subterranean termites (Reticulitermes flavipes); conditions: wood slice feeding blocks vacuum-impregnated with halofenozide, choice test; cited from earlier work
# Amitermes wheeleri = test: Forced feeding test on treated purified cellulosic bait; type: in vivo; conditions: 5000 ppm noviflumuron on cellulosic bait
# Protocol: A forced feeding test was conducted to compare mortality caused by different active ingredients treated on purified cellulosic bait. The test apparatus was the same as that described in Example 5. Noviflumuron was tested on the bait at 5000-ppm concentration, and also in combination with 5000-ppm Halofenozide Blank bait was also tested. Surviving termites were also counted at 28 days after initial exposure to the toxicant.
# [6] = C. formosanus, 0.1 ppm, 12-day exposure
# [7] = C. formosanus, 1 ppm, 12-day exposure
# [8] = C. formosanus, 10 ppm, 12-day exposure
# [9] = C. formosanus, 100 ppm, 12-day exposure
# [10] = C. formosanus, 1,000 ppm, 12-day exposure
# [11] = C. formosanus, 1,000 ppm, 12-day exposure, listed as 20 E
# [12] = R. flavipes, 0.1 ppm, 12-day exposure
# [13] = R. flavipes, 1 ppm, 12-day exposure
# [14] = R. flavipes, 10 ppm, 12-day exposure
# [15] = R. flavipes, 100 ppm, 12-day exposure
# [16] = R. flavipes, 1,000 ppm, 12-day exposure
# [17] = SYP block offered against FP with single active 5000 ppm
# [18] = single active 1250 ppm on filter paper
# [19] = single active 2500 ppm on filter paper
# [20] = single active 5000 ppm on filter paper
Structure (SMILES),% Incomplete Molting (±SE) (C. formosanus [1]; [6]) [a %],% Incomplete Molting (±SE) (C. formosanus [1]; [7]) [a %],% Incomplete Molting (±SE) (C. formosanus [1]; [8]) [a %],% Incomplete Molting (±SE) (C. formosanus [1]; [9]) [a %],days of exposure until some termites exhibited the jackknife position (incomplete molting) (C. formosanus [1]; C. formosanus),% Incomplete Molting (±SE) (R. flavipes; [12]) [a %],% Incomplete Molting (±SE) (R. flavipes; [13]) [a %],% Incomplete Molting (±SE) (R. flavipes; [14]) [a %],% Incomplete Molting (±SE) (R. flavipes; [15]),days of exposure until some termites exhibited the jackknife position (incomplete molting) (R. flavipes; R. flavipes),"mg consumed after 12 days (Mean ± SEM), untreated SYP [2, 17]","No. Survivors/50 after 26 days (Mean ± SEM) [2, 20]","% Surviving [2, 20] [%]","mg consumed after 12 days (Mean ± SEM), treated FP [2, 20] [a mg]","mg consumed after 14 days (Mean ± SEM), untreated SYP [4]",No. Survivors/50 after 14 days (Mean ± SEM) [4],% Surviving [4] [%],"mg consumed after 14 days (Mean ± SEM), treated FP [4] [a mg]",further results
CC(C)(O)CC[C@@H](O)[C@](C)(O)[C@H]1CC[C@@]2(O)C3=CC(=O)[C@@H]4C[C@@H](O)[C@@H](O)C[C@]4(C)[C@H]3CC[C@]12C [20-hydroxyecdysone],0.00 ± 0.00,0.00 ± 0.00,0.00 ± 0.00,2.38 ± 1.19,approximately 7 days,0.00 ± 0.00,0.00 ± 0.00,0.00 ± 0.00,3.85 ± 1.40ab %,approximately 7 days,,,,,,,,,"% Mortality (±SE) (C. formosanus [1]; [6]): 1.19 ± 0.75ab %; % Mortality (±SE) (C. formosanus [1]; [7]): 10.12 ± 9.42bc %; % Mortality (±SE) (C. formosanus [1]; [8]): 3.57 ± 2.26abc %; % Mortality (±SE) (C. formosanus [1]; [9]): 11.90 ± 5.43c %; % Incomplete Molting (±SE) (C. formosanus [1]; [10]): 26.19 ± 6.09b %; % Mortality (±SE) (C. formosanus [1]; [10]): 74.40 ± 3.62d %; % Incomplete Molting (±SE) (C. formosanus [1]; [11]): evident; % Mortality (±SE) (C. formosanus [1]; [11]): ca. 75%; % Mortality (±SE) (R. flavipes; [12]): 0.64 ± 0.64a %; % Mortality (±SE) (R. flavipes; [13]): 0.00 ± 0.00a %; % Mortality (±SE) (R. flavipes; [14]): 0.64 ± 0.64a %; % Mortality (±SE) (R. flavipes; [15]): 76.19 ± 11.28b %; % Incomplete Molting (±SE) (R. flavipes; [16]): 7.69 ± 3.29b %; % Mortality (±SE) (R. flavipes; [16]): 100%; % Incomplete Molting (±SE) (R. flavipes; R. flavipes, 1,000 ppm, 12-day exposure, listed as 20 E): evident"
"CC(C)(C)N(NC(=O)c1ccc(Cl)cc1)C(=O)c1ccccc1 [Halofenozide, halofenozide]",,,,,,,,,,,14.97 ± 3.85 a mg,23.25 ± 7.88 days,46.5,9.33 ± 1.41,8.35 ± 3.91 a mg,22.25 ± 5.36 b,44.5,10.12 ± 1.48,"mg consumed after 12 days (Mean ± SEM), untreated SYP ([2]; SYP block offered against FP with single active 1250 ppm): 9.49 ± 2.57 a mg; mg consumed after 12 days (Mean ± SEM), untreated SYP ([2]; SYP block offered against FP with single active 2500 ppm): 7.92 ± 2.13 a mg; No. Survivors/50 after 26 days (Mean ± SEM) [2, 18]: 45.00 ± 2.04 a; % Surviving [2, 18]: 90.0%; mg consumed after 12 days (Mean ± SEM), treated FP [2, 18]: 16.05 ± 3.39 a mg; No. Survivors/50 after 26 days (Mean ± SEM) [2, 19]: 33.75 ± 6.56 bc; % Surviving [2, 19]: 67.5%; mg consumed after 12 days (Mean ± SEM), treated FP [2, 19]: 18.70 ± 4.32 a mg; mortality (C. formosanus [3]): 50%; concentrations at which feeding deterrence occurs [5]: greater than 4,000 ppm"
"O=C(NC(=O)c1c(F)cccc1F)Nc1cc(Cl)c(OC(F)(F)C(F)F)c(Cl)c1 [Hexaflumuron, hexaflumuron]",,,,,,,,,,,9.28 ± 3.55 b mg,32.5 ± 5.48 bc,65.0,21.20 ± 2.06,,,,,
"O=C(NC(=O)c1c(F)cccc1F)Nc1cc(Cl)c(OC(F)(F)C(F)C(F)(F)F)c(Cl)c1F (stereo not shown) [Noviflumuron, noviflumuron]",,,,,,,,,,,1.77 ± 1.71 b mg,5.00 ± 3.72 e,10.0,16.17 ± 3.64,2.58 ± 1.03 b mg,13.50 ± 3.52 bc,27.0,14.58 ± 2.20,No. Survivors/30 after 28 days (Amitermes wheeleri): reduced termite survivorship in half; % Surviving (Amitermes wheeleri; 28 days): 43%; No. Survivors/30 after 28 days (Amitermes wheeleri; listed as noviflumuron): 12; % Surviving ([4]; listed as noviflumuron): 27%
C[C@H]([C@H](O)CCC(C)(C)O)[C@H]1CC[C@@]2(O)C3=CC(=O)[C@@H]4C[C@@H](O)[C@@H](O)C[C@]4(C)[C@H]3CC[C@]12C [ecdysone],0.00 ± 0.00,0.00 ± 0.00,2.38 ± 2.38,8.33 ± 5.95,approximately 7 days,0.00 ± 0.00,0.00 ± 0.00,0.00 ± 0.00,0.00 ± 0.00a %,approximately 7 days,,,,,,,,,"mortality at 0.1 ppm (C. formosanus [1]; Coptotermes formosanus, 288 h, C. formosanus, 0.1 ppm, 12-day exposure, read-out: % Mortality (±SE)): 1.79 ± 1.22%; mortality at 1 ppm (C. formosanus [1]; Coptotermes formosanus, 288 h, C. formosanus, 1 ppm, 12-day exposure, read-out: % Mortality (±SE)): 1.19 ± 0.75%; mortality at 10 ppm (C. formosanus [1]; Coptotermes formosanus, 288 h, C. formosanus, 10 ppm, 12-day exposure, read-out: % Mortality (±SE)): 11.3 ± 6.55%; mortality at 100 ppm (C. formosanus [1]; Coptotermes formosanus, 288 h, C. formosanus, 100 ppm, 12-day exposure, read-out: % Mortality (±SE)): 100%; mortality at 1000 ppm (C. formosanus [1]; Coptotermes formosanus, 288 h, C. formosanus, 1,000 ppm, 12-day exposure, read-out: % Mortality (±SE)): 93.5 ± 6.55%; mortality at 0.1 ppm (R. flavipes; Reticulitermes flavipes, 288 h, R. flavipes, 0.1 ppm, 12-day exposure, read-out: % Mortality (±SE)): 0%; mortality at 1 ppm (R. flavipes; Reticulitermes flavipes, 288 h, R. flavipes, 1 ppm, 12-day exposure, read-out: % Mortality (±SE)): 0%; mortality at 10 ppm (R. flavipes; Reticulitermes flavipes, 288 h, R. flavipes, 10 ppm, 12-day exposure, read-out: % Mortality (±SE)): 0%; mortality at 100 ppm (R. flavipes; Reticulitermes flavipes, 288 h, R. flavipes, 100 ppm, 12-day exposure, read-out: % Mortality (±SE)): 60.3 ± 18.1%; mortality at 1000 ppm (R. flavipes; Reticulitermes flavipes, 288 h, R. flavipes, 1,000 ppm, 12-day exposure, read-out: % Mortality (±SE)): 100%"
